Experiments:
[1] = biological target: T1, MDDEF (mevalonate diphosphate decarboxylase from Enterococcus faecalis) (Enterococcus faecalis, UniProt Q9FD68, K187A); assay: biochemical
T1 construct: gene mvaD

[2] = biological target: T2, MDDEF (mevalonate diphosphate decarboxylase from Enterococcus faecalis) (Enterococcus faecalis, UniProt Q9FD68); assay: X-ray crystal structure (soaked); type: binding; conditions: 1.7 Å; binary complex; pH 4.6
T2 construct: gene mvaD; full-length, recombinant in E. coli BL21(DE3); N-terminal His tag removed by TEV protease (told for K187A, wild type purified similarly); residues 1-326 modelled
T2 sequence (Q9FD68 1-331): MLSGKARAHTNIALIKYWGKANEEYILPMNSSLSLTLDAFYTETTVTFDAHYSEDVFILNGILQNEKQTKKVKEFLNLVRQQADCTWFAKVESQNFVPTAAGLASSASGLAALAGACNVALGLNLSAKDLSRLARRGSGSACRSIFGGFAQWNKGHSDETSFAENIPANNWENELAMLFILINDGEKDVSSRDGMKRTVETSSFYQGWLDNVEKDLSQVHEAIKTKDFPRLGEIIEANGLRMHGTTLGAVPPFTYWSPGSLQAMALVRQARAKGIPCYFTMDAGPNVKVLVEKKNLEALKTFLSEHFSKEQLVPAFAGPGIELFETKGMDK

purified protein [3] = substrate: C[C@@](O)(CCOP(=O)(O)OP(=O)(O)O)CC(=O)O; assay: purified protein; conditions: cobalt substituting for magnesium, co-substrate ATP, 100 mM HEPES pH 7.0, 100 mM KCl, 30 °C (standard assay)
purified protein [4] = substrate: Nc1ncnc2c1ncn2[C@@H]1O[C@H](COP(=O)(O)OP(=O)(O)OP(=O)(O)O)[C@@H](O)[C@H]1O; assay: purified protein; conditions: cobalt substituting for magnesium, co-substrate MVAPP, 100 mM HEPES pH 7.0, 100 mM KCl, 30 °C (standard assay)

In the case of `Nc1ncnc2c1ncn2[C@@H]1O[C@H](CO[P@](=O)(O)O[P@](=O)(O)O[P@@](=O)(O)S)[C@@H](O)[C@H]1O` [ATPγS], the Kd [1] is reported as 182 ± 36 µM.

`C[C@@](O)(CCOP(=O)(O)OP(=O)(O)O)CC(=O)O` [MVAPP, mevalonate-5-diphosphate] was tested, and the “X-ray crystal structure (soaked)” value [2] was “MDDEF-MVAPP: 6E2T”.

B1: MDDEF (mevalonate diphosphate decarboxylase from Enterococcus faecalis) (Enterococcus faecalis) (protein)
chain: T2 sequence (Q9FD68 1-331)
With B1 the Km (purified protein [3]) was 39.3 ± 4.0 µM and the Km (purified protein [4]) was 188 ± 13 µM.
